Values of other authors in patent US20060173046A1, “Hydroxypyridine cgrp receptor antagonists” (priority 2003, published 2006).
Ends that are not written are not given here.

Tests used:
marmoset = settings: electrical stimulation of the trigeminal ganglion
rats = settings: electrical stimulation of the dura mater, prior administration
rat = settings: trigeminal ganglion stimulation

Compound: NCCCC[C@H](NC(=O)[C@@H](Cc1cc(Br)c(O)c(Br)c1)NC(=O)N1CCC(N2Cc3ccccc3NC2=O)CC1)C(=O)N1CCN(c2ccncc2)CC1 [BIBN4096BS]
- increase in facial blood flow (marmoset): blocked

Compound: CGRP(8-37): a peptide CGRP antagonist (VTHRLAGLLSRSGGVVKNNFVPTNVGSKAF; ends and bridges not checked; UniProt P06881 90-119, looked up, fragment)
- increase of the diameter of the middle meningeal artery (rats): blocked
- increased facial blood flow (rat): inhibited
